Results as given in ChEMBL document CHEMBL5107956, “Natural products from mangrove sediments-derived microbes: Structural diversity, bioactivities, biosynthesis, and total synthesis” (Eur J Med Chem, 2022).
pIC50: −log10 of the molar value. In brackets after ≈: the same amount, converted by molar mass.

Tests used:
[1] = Antioxidant activity assessed as free radical scavenging activity incubated for 30 mins under dark condition by microplate reader analysis; type: functional
HL-60 = test: Antiproliferative activity against human HL-60 cells assessed as cell growth inhibition measured after 72 hrs by CCK-8 assay; type: functional, cell-based; settings: HL-60, 72 h
Candida albicans = test: Antifungal activity against Candida albicans ATCC 10231 assessed as fungal growth inhibition by agar dilution method; type: functional
HCT-116 [2] = test: Cytotoxicity against human HCT-116 cells assessed as cell growth inhibition by MTT assay; type: functional, cell-based
Staphylococcus aureus [3] = test: Antibacterial activity against methicillin-resistant Staphylococcus aureus assessed as bacterial cell growth inhibition by agar dilution method; type: functional
Escherichia coli = test: Antibacterial activity against Escherichia coli S002 assessed as bacterial cell growth inhibition by agar dilution method; type: functional
Bacillus subtilis = test: Antibacterial activity against Bacillus subtilis S028 assessed as bacterial cell growth inhibition by agar dilution method; type: functional
Staphylococcus aureus [4] = test: Antibacterial activity against Staphylococcus aureus S014 assessed as bacterial cell growth inhibition by agar dilution method; type: functional
Influenza A virus = test: Antiviral activity against Influenza A virus H1N1; type: functional, organism-based
[5] = biological target: Prostaglandin G/H synthase 2 (Homo sapiens) (UniProt P35354); test: Inhibition of COX2 (unknown origin) at 20 nM relative to control
[6] = Antioxidant activity assessed as free radical scavenging activity incubated for 30 mins by microplate reader analysis; type: functional
P388 = test: Cytotoxicity against mouse P388 cells assessed as cell growth inhibition measured after 72 hrs by MTT assay; type: functional, cell-based
[7] = Antiproliferative activity against human Pancreatic cancer cell assessed as cell growth inhibition measured after 24 hrs by CCK-8 assay; type: functional, cell-based
A549 = test: Cytotoxicity against human A549 cells assessed as cell growth inhibition incubated for 48 hrs by CCK-8 assay; type: functional, cell-based; settings: A549, 48 h
HCT-116 [8] = test: Cytotoxicity against human HCT-116 cells assessed as cell growth inhibition incubated for 48 hrs by CCK-8 assay; type: functional, cell-based; settings: HCT-116, 48 h
Staphylococcus aureus [9] = test: Antibacterial activity against Staphylococcus aureus ATCC 25923 assessed as bacterial growth inhibition; type: functional, organism-based

Prostaglandin G/H synthase 2 (Homo sapiens), sequence (P35354 whole entry, looked up): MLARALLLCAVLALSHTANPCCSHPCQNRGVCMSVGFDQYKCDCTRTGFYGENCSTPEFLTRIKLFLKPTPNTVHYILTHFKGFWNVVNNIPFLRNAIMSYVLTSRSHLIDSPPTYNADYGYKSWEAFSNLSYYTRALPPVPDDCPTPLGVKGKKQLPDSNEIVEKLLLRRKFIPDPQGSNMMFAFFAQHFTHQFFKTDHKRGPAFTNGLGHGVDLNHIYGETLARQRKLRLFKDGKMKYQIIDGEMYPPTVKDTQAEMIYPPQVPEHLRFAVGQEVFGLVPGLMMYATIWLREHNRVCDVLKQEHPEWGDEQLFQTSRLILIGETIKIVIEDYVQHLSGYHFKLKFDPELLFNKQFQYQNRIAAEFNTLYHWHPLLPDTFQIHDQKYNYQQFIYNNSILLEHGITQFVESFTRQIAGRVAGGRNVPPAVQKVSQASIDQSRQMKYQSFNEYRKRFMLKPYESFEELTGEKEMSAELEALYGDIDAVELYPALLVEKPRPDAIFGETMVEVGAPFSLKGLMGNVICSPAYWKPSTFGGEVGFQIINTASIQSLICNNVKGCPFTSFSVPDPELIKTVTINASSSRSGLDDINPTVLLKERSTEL

C=C1C(=O)CC2OC(=O)C(=C(O)C2CC)CCC2(C)CC(C)C(O2)C(C)C1OC (stereo not given)
pIC50 [1]: 5.62

C/C=C/[C@H](O)[C@H](C)/C=C(C)/C=C/C/C(C)=C/Cc1[nH]c(OC)cc(=O)c1C
pIC50 (HL-60): > 7.00

C/N=C(\NC)NCCC/C=C/CCCC(C)C1OC(=O)/C(C)=C/C=C/C(C)C(O)CC(O)C(C)C(O)CCC(C)C(O)CC2(O)OC(CC(OC(=O)CC(=O)O)CC(O)CC(O)CC(O)/C(C)=C/C=C/C1C)CC(O)C2O (stereo not given)
MIC (Candida albicans): 1.65 µg/mL (≈ 1.5 µM) | IC50 (HCT-116 [2]): 1.81 µg/mL (≈ 1.65 µM) | MBC (Staphylococcus aureus [3]): 8 µg/mL (≈ 7.3 µM) | MIC (Staphylococcus aureus [3]): 4 µg/mL (≈ 3.65 µM)

C/C1=C\C=C\[C@H](C)[C@@H](O)C[C@H](O)[C@@H](C)[C@H](O)CC[C@H](C)[C@@H](O)C[C@@]2(O)O[C@@H](C[C@@H](OC(=O)CCCCC(C)C)C[C@H](O)C[C@@H](O)C[C@H](O)/C(C)=C/C=C/[C@@H](C)[C@H]([C@@H](C)CCC/C=C/CCCNC(=N)N)OC1=O)C[C@@H](O)[C@@H]2O
MIC (Candida albicans): 1.65 µg/mL (≈ 1.49 µM) | MIC (Escherichia coli): 3.13 µg/mL (≈ 2.82 µM) | MIC (Bacillus subtilis): 0.2 µg/mL (≈ 0.18 µM) | MIC (Staphylococcus aureus [4]): 0.39 µg/mL (≈ 0.352 µM)

O=C1NC2c3nc4ccccc4c(=O)n3[C@H]1C[C@@]21c2ccccc2N2C(=O)[C@@H]3CCCN3[C@H]21
pIC50 (Influenza A virus): 4.09

CCCC1C(=O)C2CCC3(C)CC(C)C(O3)C(O)/C=C(\C)C(=O)CC1OC2=O (stereo not given)
pIC50 [1]: 5.62

C/N=C(\NC)NCCC/C=C/CCC[C@H](C)[C@@H]1OC(=O)/C(C)=C/C=C/[C@H](C)[C@@H](O)C[C@H](O)[C@@H](C)[C@H](O)CC[C@H](C)[C@@H](O)C[C@@]2(O)O[C@@H](C[C@@H](O)C[C@H](OC(=O)CC(=O)O)C[C@@H](O)C[C@H](O)/C(C)=C/C=C/[C@H]1C)C[C@@H](O)[C@@H]2O
MIC (Candida albicans): 1.65 µg/mL (≈ 1.5 µM) | MIC (Escherichia coli): 3.13 µg/mL (≈ 2.85 µM) | MIC (Bacillus subtilis): 0.2 µg/mL (≈ 0.182 µM) | MIC (Staphylococcus aureus [4]): 0.39 µg/mL (≈ 0.356 µM)

O=C(CNC(=O)c1ccccc1-n1c(=O)[nH]c2ccccc2c1=O)c1ccccc1
inhibition [5]: > 65%

CC(=O)OCCCCNC(=O)c1ccc(O)c(O)c1
pIC50 [6]: 5.33

CC(C)=C1NC(=O)[C@@H](C[C@]2(O)c3ccccc3N3C(=O)[C@H](C)N[C@H]32)n2c1nc1ccccc1c2=O
pIC50 (Influenza A virus): 4.09

C/C=C/[C@H](OC)[C@H](C)/C=C(C)/C=C/C/C(C)=C/Cc1nc(OC)c(OC)c(O)c1C
pIC50 (HL-60): > 7.00

CCCC(CC)COC(=O)CC(=O)OC1CC(O)CC2CC(O)C(O)C(O)(CC(O)C(C)CCC(O)C(C)C(O)CC(O)C(C)/C=C/C=C(\C)C(=O)OC(C(C)CCC/C=C/CCCN/C(N)=N\C)C(C)/C=C/C=C(\C)C(O)CC(O)C1)O2 (stereo not given)
MIC (Candida albicans): 1.65 µg/mL (≈ 1.4 µM) | MIC (Escherichia coli): 3.13 µg/mL (≈ 2.65 µM) | MIC (Bacillus subtilis): 0.2 µg/mL (≈ 0.169 µM) | MIC (Staphylococcus aureus [4]): 0.39 µg/mL (≈ 0.33 µM)

C/N=C(/N)NCCC/C=C/CCC[C@H](C)[C@@H]1OC(=O)/C(C)=C/C=C/[C@H](C)[C@@H](O)C[C@H](O)[C@@H](C)[C@H](O)CC[C@H](C)[C@@H](O)C[C@@]2(O)O[C@@H](C[C@@H](OC(=O)CCCCCCCC(C)C)C[C@H](O)C[C@@H](O)C[C@H](O)/C(C)=C/C=C/[C@H]1C)C[C@@H](O)[C@@H]2O
MIC (Candida albicans): 1.65 µg/mL (≈ 1.42 µM) | MIC (Escherichia coli): 3.13 µg/mL (≈ 2.69 µM) | MIC (Bacillus subtilis): 0.2 µg/mL (≈ 0.172 µM) | MIC (Staphylococcus aureus [4]): 0.39 µg/mL (≈ 0.335 µM)

C=CC(C)(C)c1[nH]c2ccccc2c1/C=C1\NC(=O)[C@]2(C[C@H](C)C=C[C@@H]2CCc2c(O)cc(CC=C(C)C)c(O)c2C=O)NC1=O (stereo in doubt)
pIC50 (P388; p388): 5.60

C=CC(C)(C)c1[nH]c2ccccc2c1/C=C1\NC(=O)[C@]2(C[C@H](C)C=C[C@@H]2CCc2c(O)cc(CC=C(C)C)c(O)c2C=O)NC1=O (stereo in doubt; 251)
pIC50 (P388; Mus musculus, P388, 72 h): 5.46

C/N=C(/N)NCCC/C=C/CCC[C@H](C)[C@@H]1OC(=O)/C(C)=C/C=C/[C@H](C)[C@@H](O)C[C@H](O)[C@@H](C)[C@H](O)CC[C@H](C)[C@@H](O)C[C@@]2(O)O[C@@H](C[C@@H](OC(=O)CCCCC(C)C)C[C@H](O)C[C@@H](O)C[C@H](O)/C(C)=C/C=C/[C@H]1C)C[C@@H](O)[C@@H]2O
MIC (Candida albicans): 1.65 µg/mL (≈ 1.47 µM) | MIC (Escherichia coli): 3.13 µg/mL (≈ 2.79 µM) | MIC (Bacillus subtilis): 0.2 µg/mL (≈ 0.178 µM) | MIC (Staphylococcus aureus [4]): 0.39 µg/mL (≈ 0.347 µM)

CC[C@H]1[C@H]2[C@H](C[C@H]1C)[C@H]1C[C@H]3/C=C/C(=O)C4=C(O)[C@@H](CCCNC(=O)/C=C\C[C@@H]3[C@H]1[C@@H]1O[C@@H]12)NC4=O
pIC50 [7]: 5.89

COc1nc(C/C=C(\C)C/C=C/C(C)=C/[C@@H](C)/C=C/[C@@H](C)OC)c(C)c(O)c1OC
pIC50 (HL-60): > 7.00

C/C1=C\C=C\C(C)C(O)CC(O)C(C)C(O)CCC(C)C(O)CC2(O)OC(CC(OC(=O)CC(=O)O)CC(O)CC(O)CC(O)/C(C)=C/C=C/C(C)C(C(C)CCC/C=C/CCCNC(=N)N)OC1=O)CC(O)C2O (stereo not given)
MIC (Candida albicans): 1.65 µg/mL (≈ 1.54 µM) | IC50 (HCT-116 [2]): 1.81 µg/mL (≈ 1.69 µM) | MBC (Staphylococcus aureus [3]): 8 µg/mL (≈ 7.49 µM) | MIC (Staphylococcus aureus [3]): 4 µg/mL (≈ 3.74 µM)

C[C@@H]1O[C@@H](Oc2ccc(C3COc4cc(O)ccc4C3=O)cc2)C[C@H](O)[C@@H]1O (stereo not given in full)
IC50 (A549): 13.5 µg/mL (≈ 34.9 µM) | IC50 (HCT-116 [8]): 13.5 µg/mL (≈ 34.9 µM)

C/C=C/C=C/CCc1c(O)ccc(O)c1COC
pIC50 [1]: 4.75

C[C@@H]1O[C@@H](Oc2ccc3c(c2)OCC(c2ccc(O)cc2)C3=O)C[C@H](O)[C@@H]1O (stereo not given in full)
IC50 (A549): 13.5 µg/mL (≈ 34.9 µM) | IC50 (HCT-116 [8]): 13.5 µg/mL (≈ 34.9 µM)

C/N=C(/NC)NCCC/C=C/CCC[C@H](C)[C@@H]1OC(=O)/C(C)=C/C=C/[C@H](C)[C@@H](O)C[C@H](O)[C@@H](C)[C@H](O)CC[C@H](C)[C@@H](O)C[C@@]2(O)O[C@@H](C[C@@H](OC(=O)CCCCCCCCC(C)C)C[C@H](O)C[C@@H](O)C[C@H](O)/C(C)=C/C=C/[C@H]1C)C[C@@H](O)[C@@H]2O
MIC (Candida albicans): 1.65 µg/mL (≈ 1.38 µM) | MIC (Escherichia coli): 3.13 µg/mL (≈ 2.62 µM) | MIC (Bacillus subtilis): 0.2 µg/mL (≈ 0.168 µM) | MIC (Staphylococcus aureus [4]): 0.39 µg/mL (≈ 0.327 µM)

O=C1O/C(=C\c2ccc(O)cc2)C(O)=C1c1ccc(O)cc1 [ASPULVINONE E]
pIC50 (Staphylococcus aureus [9]): 4.58
